# PMC6718442, “11β-Hydroxysteroid dehydrogenases control access of 7β,27-dihydroxycholesterol to retinoid-related orphan receptor γ” (Journal of Lipid Research, 2019)
# Experiments:
# mouse 11β-hsd1 = biological target: T1, mouse 11β-hsd1 (Mus musculus, UniProt P50172); assay: Conversion of 7k27OHC by mouse 11β-hsd1 (data not shown)
# T1 construct: expressed in transfected cells; host or cells: HEK-293
# human 11β-HSD1 = biological target: T2, human 11β-HSD1 (Homo sapiens, UniProt P28845); assay: 11β-HSD1 enzyme kinetics (apparent KM and Vmax) in microsomes; assay type: biochemical
# T2 construct: expressed in transfected cells
# Method: Microsomes were prepared as described earlier with minor modifications ([38]). Briefly, HEK-293 cells stably expressing human 11β-HSD1 and H6PDH were cultured until they reached confluence. Then, they were washed with ice-cold PBS and resuspended to a final concentration of ∼2 × 10^7 cells/ml in ice-cold buffer A [50 mM Tris (pH 7.5), 1 mM EDTA, 100 mM NaCl]. Typically, 6 ml of this suspension were prepared, corresponding to 1.2 × 10^8 cells. Following homogenization with 20 strokes in a glass potter on ice, the preparation was sonicated and centrifuged (9.000 g, 4°C for 30 min). The supernatant was removed and subjected to ultracentrifugation at 105,000 g, 4°C for 70 min. The obtained pellet was resuspended in buffer B [20 mM Tris (pH 7.5), 1 mM EDTA, 10% glycerol] and the ultracentrifugation step repeated. The microsomal fraction was again resuspended in buffer B and the total protein concentration determined using BCA assay ([39]). The microsomes were immediately frozen on dry ice and stored at −80°C.
# Microsomes (1–20 μg) expressing 11β-HSD1 and H6PDH were incubated for 20 min with 1 mM of NADPH, 2 mM of glucose-6-phosphate, 0.1 units of glucose-6-phosphate dehydrogenase (from Saccharomyces cerevisiae), and different concentrations (62.5–2,000 nM) of 7k27OHC, adapted to a total assay volume of 50 μl with TS2 buffer [100 mM NaCl, 1 mM EGTA, 1 mM EDTA, 1 mM MgCl2, 250 mM sucrose, 20 mM Tris/HCl (pH 7.4)]. Oxysterols were extracted by mixing the samples with ice-cold ethyl acetate containing 100 nM deuterium-labeled 7β27OHC as internal standard and 1.5% (v/v) BHT/TPP solution as antioxidant. […] After reconstitution in 50 μl of methanol:ultra-pure water (1:1, v/v), the samples were centrifuged (4°C, 16,000 g for 10 min) and analyzed by UHPLC-MS/MS.
# The substrate conversion was kept below 30% in all reactions. Apparent kinetic parameters (KM and Vmax) were determined by nonlinear regression and under the assumption of Michaelis-Menten kinetics. […]
# [1] = biological target: T3, mineralocorticoid receptor (MR) (Homo sapiens, UniProt P80365); assay: Mineralocorticoid receptor reporter gene assay in HEK-293 cells stably expressing 11β-HSD2; assay type: cell-based; conditions: without cortisol, data not shown
# T3 sequence (P80365 1-405): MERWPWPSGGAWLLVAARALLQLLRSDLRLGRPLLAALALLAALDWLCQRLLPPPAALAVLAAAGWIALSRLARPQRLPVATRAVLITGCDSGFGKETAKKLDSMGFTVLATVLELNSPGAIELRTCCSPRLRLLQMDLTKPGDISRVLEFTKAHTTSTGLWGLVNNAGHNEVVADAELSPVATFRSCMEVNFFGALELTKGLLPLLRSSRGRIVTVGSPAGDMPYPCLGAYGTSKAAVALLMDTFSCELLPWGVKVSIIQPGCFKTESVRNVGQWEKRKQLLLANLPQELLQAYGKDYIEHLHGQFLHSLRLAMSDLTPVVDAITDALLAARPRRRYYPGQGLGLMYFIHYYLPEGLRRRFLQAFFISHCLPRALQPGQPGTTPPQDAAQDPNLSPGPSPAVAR
# T3 sequence (P08235 1-984 partner): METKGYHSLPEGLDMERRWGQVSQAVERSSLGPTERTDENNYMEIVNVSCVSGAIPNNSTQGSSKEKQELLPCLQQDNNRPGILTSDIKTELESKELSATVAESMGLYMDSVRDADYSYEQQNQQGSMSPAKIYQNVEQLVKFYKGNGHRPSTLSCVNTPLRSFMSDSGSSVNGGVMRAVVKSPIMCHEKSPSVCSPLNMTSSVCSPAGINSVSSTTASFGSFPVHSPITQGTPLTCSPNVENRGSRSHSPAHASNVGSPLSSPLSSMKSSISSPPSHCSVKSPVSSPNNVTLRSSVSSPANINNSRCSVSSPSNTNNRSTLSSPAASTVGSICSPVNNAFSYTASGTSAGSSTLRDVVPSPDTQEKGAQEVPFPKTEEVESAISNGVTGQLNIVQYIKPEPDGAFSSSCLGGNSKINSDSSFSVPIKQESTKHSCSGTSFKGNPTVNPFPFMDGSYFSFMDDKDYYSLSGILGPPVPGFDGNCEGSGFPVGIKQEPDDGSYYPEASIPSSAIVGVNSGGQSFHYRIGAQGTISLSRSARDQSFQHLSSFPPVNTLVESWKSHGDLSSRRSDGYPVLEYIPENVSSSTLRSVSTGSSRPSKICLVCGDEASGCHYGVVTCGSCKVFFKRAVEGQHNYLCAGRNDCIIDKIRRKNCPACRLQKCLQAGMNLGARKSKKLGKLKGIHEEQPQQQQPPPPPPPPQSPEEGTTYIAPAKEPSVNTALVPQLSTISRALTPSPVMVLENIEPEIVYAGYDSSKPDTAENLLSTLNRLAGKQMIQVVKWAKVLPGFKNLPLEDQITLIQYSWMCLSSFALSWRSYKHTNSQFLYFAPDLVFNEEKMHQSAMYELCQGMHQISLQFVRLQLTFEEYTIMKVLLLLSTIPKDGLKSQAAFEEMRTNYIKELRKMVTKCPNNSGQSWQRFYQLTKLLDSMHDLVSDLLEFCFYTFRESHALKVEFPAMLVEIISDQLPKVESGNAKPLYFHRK
# Method: Then, the cells were transiently transfected with the mineralocorticoid receptor (MR) (300 ng/well), a [NT] luciferase reporter (450 ng/well), and a pCMV-lacZ β-galactosidase transfection control (25 ng/well) using the calcium phosphate precipitation method. At 6 h post-transfection, the cells were washed with DMEM and incubated for another 18 h before replacing the medium with cDMEM. The cells were cultured for another 2 h at 37°C. […] The cells were lysed with Tropix lysis solution (Applied Biosystems, Foster City, CA) containing 0.5 mM of dithiothreitol and frozen at -80°C for at least 20 min.
# 11β-HSD2 = biological target: T4, 11β-HSD2 (Homo sapiens, UniProt P80365); assay: 11β-HSD2 enzyme kinetics (apparent KM and Vmax) in HEK-293 cell lysate; assay type: biochemical
# T4 construct: expressed in transfected cells
# T4 sequence (P80365 1-405): T3 sequence (P80365 1-405)
# Method: For 11β-HSD2 activity measurements, 0.8 μg of HEK-293 cell lysate stably expressing 11β-HSD2 was incubated with different concentrations (50–800 nM) of 7β27OHC and 500 μM of NAD^+ for 10–30 min. Oxysterols were extracted as described in the 11β-HSD-dependent metabolism of 7-oxygenated 27OHCs in intact cells section.
# The substrate conversion was kept below 30% in all reactions. Apparent kinetic parameters (KM and Vmax) were determined by nonlinear regression and under the assumption of Michaelis-Menten kinetics. Data (mean ± SD) were obtained from three independent experiments.
# [2] = oxoreduction of substrate by 11β-HSD1, microsomes
# [3] = oxidation of substrate by 11β-HSD2, cell lysate
# T2 sequence (P28845 whole entry): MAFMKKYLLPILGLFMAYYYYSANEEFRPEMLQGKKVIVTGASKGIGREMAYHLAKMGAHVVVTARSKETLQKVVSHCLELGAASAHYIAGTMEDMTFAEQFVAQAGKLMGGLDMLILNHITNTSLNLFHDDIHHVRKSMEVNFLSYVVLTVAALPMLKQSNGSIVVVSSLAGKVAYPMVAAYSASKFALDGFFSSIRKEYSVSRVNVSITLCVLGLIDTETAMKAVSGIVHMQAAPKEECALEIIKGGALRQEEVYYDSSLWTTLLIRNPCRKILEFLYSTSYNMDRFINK
# T1 sequence (P50172 whole entry): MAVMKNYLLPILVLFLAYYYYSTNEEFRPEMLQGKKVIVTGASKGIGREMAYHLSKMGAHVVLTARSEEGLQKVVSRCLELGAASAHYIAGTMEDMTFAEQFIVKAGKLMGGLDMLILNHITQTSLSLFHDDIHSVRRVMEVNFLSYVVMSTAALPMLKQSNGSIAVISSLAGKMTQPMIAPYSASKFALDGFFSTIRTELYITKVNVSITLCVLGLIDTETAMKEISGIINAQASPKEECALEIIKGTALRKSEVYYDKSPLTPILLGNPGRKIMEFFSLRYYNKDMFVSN
SMILES,Conversion by mouse 11β-hsd1 (in words) (mouse 11β-hsd1),KMapp (human 11β-HSD1; [2]),Vmax app (human 11β-HSD1; [2]),"Affinity of 11β-HSD1, times higher than for other endogenous substrates (human 11β-HSD1; versus cortisone, 11-DHC, 7kC, 7oxoLCA)",Stimulation of MR activity by the substance itself (in words) [1],KMapp (11β-HSD2; [3]),Vmax app (11β-HSD2; [3]),"Substrate affinity of 11β-HSD2, times higher than for cortisol (11β-HSD2; versus cortisol KMapp ∼200 nM)"
"CC(CO)CCC[C@@H](C)[C@H]1CC[C@H]2[C@@H]3C(=O)C=C4C[C@@H](O)CC[C@]4(C)[C@H]3CC[C@]12C (stereo partly drawn) [7k27OHC, 7-keto,27-hydroxycholesterol]",exclusive conversion of 7k27OHC to 7β27OHC without the formation 7α27OHC,39 ± 12 nM,4.3 ± 0.2 nmol·h^−1·mg total protein^−1,6-25 times,neither 7β27OHC nor 7k27OHC was able to stimulate MR activity by itself,,,
"CC(CO)CCC[C@@H](C)[C@H]1CC[C@H]2[C@@H]3[C@@H](O)C=C4C[C@@H](O)CC[C@]4(C)[C@H]3CC[C@]12C (stereo partly drawn) [7β27OHC, 7β,27-dihydroxycholesterol]",,,,,neither 7β27OHC nor 7k27OHC was able to stimulate MR activity by itself,56 ± 11 nM,10 ± 0.4 nmol·h^−1·mg total protein^−1,~4 times
